From PMC11208146, “Molecular basis for transposase activation by a dedicated AAA+ ATPase” (Nature, 2024)

Assays:
Assay type in all cases: binding
[1] = target: T1, IstA–IstB–STC holo-transpososome (Geobacillus stearothermophilus, UniProt Q45618+Q45619, Q45619:E167Q, form not given); assay: cryo-EM structure, focused refinement of core, […] Å; conditions: assembled with 1 mM ATP, 5 mM MgCl2, pH 7.5, strand-transfer DNA; IstB monomers 1a and 1a' contacting IstA
T1 construct: full-length IstB (His6-MBP cleaved) with full-length IstA (C-terminal MBP-His6 cleaved by TEV), E. coli; in the structure one IstA tetramer, two IstB decamers and strand-transfer DNA, about 1 MDa; IstA Glu209/Tyr213 contact the nucleotide of IstB 1a/1a'

[2] = target: T1, IstA–IstB–STC holo-transpososome; assay: cryo-EM structure, […] Å; conditions: assembled with 1 mM ATP, 5 mM MgCl2, pH 7.5, strand-transfer DNA; internal IstB-IstB sites (e.g. 1b)
[3] = target: T2, IstB (Geobacillus stearothermophilus, UniProt Q45619); assay: cryo-EM structure, […] Å; conditions: 5 mM MgCl2, 1 mM ATP, pH 7.5, 60 bp target DNA; eight complete sites at IstB-IstB interfaces
T2 construct: full-length; His6-MBP tag cleaved (PreScission); E. coli BL21 codon-plus (DE3) RIL; pentamer of dimers (decamer) on 60 bp target DNA

| SMILES | cryo-EM structure, focused refinement of core, 3.2 Å [1] | cryo-EM structure, 3.6 Å [2] | cryo-EM structure, 3.2 Å [3] |
| --- | --- | --- | --- |
| Nc1ncnc2c1ncn2[C@@H]1O[C@H](COP(=O)(O)OP(=O)(O)O)[C@@H](O)[C@H]1O [ADP] | revealed that the density in these active sites is most consistent with ADP | – | – |
| Nc1ncnc2c1ncn2[C@@H]1O[C@H](COP(=O)(O)OP(=O)(O)OP(=O)(O)O)[C@@H](O)[C@H]1O [ATP] | – | other subunits (1b, bound to ATP, shown on the right for comparison) | Close inspection of the EM map showed clear density maps for ATP in all binding pockets |
